Data published in PubChem BioAssay AID815 (Emory University Molecular Libraries Screening Center, 2007).
Records with an inconclusive call do not appear. The source made the active and inactive calls.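 The calls were made as follows: active = compounds whose half-maximal effective concentration EC50 against measles virus is under 10 µM; inactive = the rest, inconclusive results apart.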

Test system: Vero cells, measles virus yield reduction, TCID50, 36 h
Assay: antiviral potency against measles with cytotoxicity – cell-based, EC50 and CC50, dose response (AID 815)
Conditions: for CC50: measured here: cytotoxicity, viable cells

Compound	EC50	CC50
Cc1cc(CNc2ccc(S(=O)(=O)N3CCCC3)cc2)n(C)n1	> 75 µM (inactive)	> 300 µM
Cc1cc(C(=O)Nc2ccc(S(=O)(=O)N3CCCC3)cc2)n(C)n1	> 75 µM (inactive)	> 300 µM
Cn1nc(C(C)(C)C)cc1C(=O)Nc1ccc(S(=O)(=O)N2CCCC2)cc1	25 µM (inactive)	140 µM
O=C(Nc1ccc(S(=O)(=O)N2CCCC2)cc1)c1ccc([N+](=O)[O-])cc1Cl	> 75 µM (inactive)	> 300 µM
Cn1nc(C(F)(F)F)cc1C(=O)Cc1ccc(S(=O)(=O)N2CCCC2)cc1	15.5 µM (inactive)	> 300 µM
Cn1nc(C(F)(F)F)cc1C(=O)Nc1ccc(S(=O)(=O)N2CCNCC2)cc1	28 µM (inactive)	126 µM
O=C(Nc1ccc(S(=O)(=O)N2CCCC2)cc1)c1cccc(C(F)(F)F)c1	> 75 µM (inactive)	> 300 µM
Cn1nc(C(F)(F)F)cc1C(=O)Nc1ccc(S(=O)(=O)N2CCCCC2C(=O)O)cc1 (stereo not drawn)	> 75 µM (inactive)	> 300 µM
Nc1ccc(C(=O)Nc2ccc(S(=O)(=O)N3CCCC3)cc2)c(Cl)c1	> 75 µM (inactive)	> 300 µM
O=C(Nc1ccc(S(=O)(=O)N2CCCC2)cc1)c1ccco1	> 75 µM (inactive)	> 300 µM
Cn1nc(C(F)(F)F)cc1C(=O)Nc1ccc(S(=O)(=O)N2CCCC2)cc1O	> 75 µM (inactive)	288 µM
Cn1nc(C(F)(F)F)cc1C(=O)Nc1ccc(S(=O)(=O)N2CCCCC2)cc1	< 2.3 µM	> 300 µM
COc1ccc(Br)c(C(=O)Nc2ccc(S(=O)(=O)N3CCCC3)cc2)c1	> 75 µM (inactive)	> 300 µM
O=C(Nc1ccc(S(=O)(=O)N2CCCC2)cc1)c1cc(C(F)(F)F)nn1Cc1ccccc1	> 75 µM (inactive)	37 µM
O=C(Nc1ccc(S(=O)(=O)N2CCCC2)cc1)c1cccs1	> 75 µM (inactive)	> 300 µM
Cn1nc(C(F)(F)F)cc1COc1ccc(S(=O)(=O)N2CCCC2)cc1	> 75 µM (inactive)	> 300 µM
Cn1nc(C(F)(F)F)cc1C(=O)Nc1ccc(S(=O)(=O)N2CCC[C@H]2C(=O)OC(=O)c2ccccc2)cc1	14 µM (inactive)	100 µM
Cn1nc(C(F)(F)F)cc1C(=O)Nc1ccc(S(=O)(=O)N2CCCC2)cc1N	> 75 µM (inactive)	> 300 µM
O=C(Nc1ccc(S(=O)(=O)N2CCCC2)cc1)c1ccc(C(F)(F)F)cc1[N+](=O)[O-]	> 75 µM (inactive)	> 300 µM
Cc1nc(C(F)(F)F)ccc1C(=O)Nc1ccc(S(=O)(=O)N2CCCC2)cc1	> 75 µM (inactive)	> 300 µM
Cn1nc(C(F)(F)F)cc1C(=O)Nc1ccc(S(=O)(=O)N2CCOCC2)cc1	43 µM (inactive)	> 300 µM
Cn1nc(C(F)(F)F)cc1C(=O)Nc1ccc(S(=O)(=O)N2CCC[C@H]2C(=O)O)cc1	23 µM (inactive)	> 300 µM
O=C(Nc1ccc(S(=O)(=O)N2CCCC2)cc1)c1ccccc1C(F)(F)F	> 75 µM (inactive)	> 300 µM
O=C(Nc1ccc(S(=O)(=O)N2CCCC2)cc1)c1ccc(C(F)(F)F)cc1	48 µM (inactive)	> 300 µM
O=C(Nc1ccc(S(=O)(=O)N2CCCC2)cc1)c1nc2ccccc2s1	> 75 µM (inactive)	> 300 µM
O=C(Nc1ccc(S(=O)(=O)N2CCCC2)cc1)c1nccn1-c1ccccc1C(F)(F)F	65 µM (inactive)	> 300 µM
O=C(Nc1ccc(S(=O)(=O)N2CCCC2)cc1)c1cc(C(F)(F)F)ccc1F	> 75 µM (inactive)	76 µM
Cn1nc(C(F)(F)F)cc1C(O)Cc1ccc(S(=O)(=O)N2CCCC2)cc1 (stereo not drawn)	41 µM (inactive)	> 300 µM
O=C(Nc1ccc(S(=O)(=O)N2CCCC2)cc1)c1ccc(F)cc1	> 75 µM (inactive)	> 300 µM
